{
  "source": "patent US11471469B2",
  "about": "(Lennham Pharmaceuticals, Inc., priority 2020, dated 2022)",
  "molecular_target": "T1, Recombinant CYP19 (aromatase) (Homo sapiens, UniProt P11511)",
  "T1 sequence (P11511 1-503)": "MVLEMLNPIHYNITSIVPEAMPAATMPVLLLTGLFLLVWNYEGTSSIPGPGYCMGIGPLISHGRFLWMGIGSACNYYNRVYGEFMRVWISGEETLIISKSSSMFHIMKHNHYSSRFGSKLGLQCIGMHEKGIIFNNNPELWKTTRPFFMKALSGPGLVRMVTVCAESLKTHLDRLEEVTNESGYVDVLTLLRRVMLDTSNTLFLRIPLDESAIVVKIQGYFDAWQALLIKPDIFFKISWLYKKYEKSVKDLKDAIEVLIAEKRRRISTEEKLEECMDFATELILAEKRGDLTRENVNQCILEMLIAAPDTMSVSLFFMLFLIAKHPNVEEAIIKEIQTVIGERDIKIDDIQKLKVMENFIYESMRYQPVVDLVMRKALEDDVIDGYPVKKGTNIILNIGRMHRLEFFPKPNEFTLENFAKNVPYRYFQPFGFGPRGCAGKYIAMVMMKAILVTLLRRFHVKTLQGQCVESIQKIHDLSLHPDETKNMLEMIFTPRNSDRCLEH",
  "experiment": "Metabolic stability in the presence of recombinant CYP19 (aromatase)",
  "method": "The incubation conditions used are described in Table 1.\nThe analytical method used is described in Table 2.",
  "key": {"[1]": {"details": "recombinant human CYP19, compared with testosterone"}},
  "data": [
    {"compound": "[2H]C([2H])([2H])[C@]12CCC(=O)C=C1CC[C@H]1[C@@H]3CC[C@H](O)[C@@]3(C)CC[C@@H]12", "note": "[Testosterone-19-d3, testosterone-19-d3]", "values": [
      {"measurement": "half-life (t1/2) in aromatase, times longer than that of non-isotopically enriched testosterone", "setting": "recombinant human CYP19, 0.5 μM, 4 pmol/ml or 2 μM, 10 pmol/ml, NADPH 1 mM, 0-60 min at 37° C.", "value": "4-7 times"},
      {"measurement": "clearance by aromatase", "setting": "[1]", "value": "more resistant to clearance by aromatase"},
      {"measurement": "metabolic stability in the presence of aromatase", "setting": "[1]", "value": "substantially higher stability than testosterone"}
    ]}
  ]
}
